Measurements from patent US11377442B2, “Small molecule agonists and antagonists of NR2F6 activity” (ZANDER THERAPEUTICS, INC., priority 2016, dated 2022).

Biological target: T1, NR2F6 (Homo sapiens, UniProt P10588)
T1 construct: expressed in transfected cells; also transient transfection
T1 sequence (P10588 1-404): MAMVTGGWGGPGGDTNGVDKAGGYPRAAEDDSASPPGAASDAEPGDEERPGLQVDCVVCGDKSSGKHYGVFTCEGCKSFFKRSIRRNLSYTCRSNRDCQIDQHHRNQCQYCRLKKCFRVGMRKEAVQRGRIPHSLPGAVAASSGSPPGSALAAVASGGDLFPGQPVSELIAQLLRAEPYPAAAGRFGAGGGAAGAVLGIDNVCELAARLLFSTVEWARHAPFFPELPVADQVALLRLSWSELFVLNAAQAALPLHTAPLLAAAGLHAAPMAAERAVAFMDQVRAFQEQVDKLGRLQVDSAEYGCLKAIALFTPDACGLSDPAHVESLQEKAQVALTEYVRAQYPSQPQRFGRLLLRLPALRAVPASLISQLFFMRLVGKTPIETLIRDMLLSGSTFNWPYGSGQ
Assay: NR2F6 agonist screening, Firefly signal cmpd/DMSO
Assay type: cell-based
Parameters: Firefly NR2F6 full length, cmpd/DMSO (mean) / Firefly F4, cmpd/DMSO (mean): unit of the concentration uncertain
Settings: for Firefly/Renilla (NR2F6 stable, clone F4): ratio Firefly/Renilla; for Firefly, NR2F6 stable (clone F4)/pGL4: ratio of Firefly in NR2F6 stable clone F4 to pGL4

[1] = Concentration 2 (unit uncertain)
[2] = Concentration 10 (unit uncertain)
[3] = Concentration 40 (unit uncertain)
[4] = C11 analogs follow set (Tables 2-10), repeat 1
[5] = C11 analogs follow set (Tables 2-10), repeat 2

Structure (SMILES)	Firefly, cmpd/DMSO repeat 1 [4]	Firefly, cmpd/DMSO repeat 2 [5]	other results
Cc1cc(C)c(S(=O)(=O)NCc2nc3nc(C)cc(C)n3n2)c(C)c1 [Compound E10]	–	–	Firefly F4, cmpd/DMSO (mean) [1]: 1.1; Firefly NR2F6 full length, cmpd/DMSO (mean) [1]: 1.3; Firefly F4, cmpd/DMSO (mean) [2]: 1.0; Firefly NR2F6 full length, cmpd/DMSO (mean) [2]: 1.5; Firefly F4, cmpd/DMSO (mean) [3]: 0.8; Firefly NR2F6 full length, cmpd/DMSO (mean) [3]: 1.1
COc1ccccc1NC(=O)c1ccc2oc(=O)c(S(=O)(=O)c3ccc(Cl)cc3)cc2c1 [Compound C125]	28.0	24.5	–
COc1cc(NC(=O)c2ccc3oc(=O)c(S(=O)(=O)c4ccc(C)cc4)cc3c2)cc(OC)c1 [Compound C131]	9.5	15.3	–
O=c1oc2c(F)cc(F)cc2cc1S(=O)(=O)c1ccc(Br)cc1 [Compound C290]	–	–	Firefly, cmpd/DMSO repeat 1 (Table 11, repeat 1): 13.8; Firefly, cmpd/DMSO repeat 2 (Table 11, repeat 2): 14.6
COc1ccc(NC(=O)c2ccc3oc(=O)c(S(=O)(=O)c4ccc(Cl)cc4)cc3c2)cc1OC [Compound C122]	4.4	5.7	–
O=C(NCc1ccc(F)cc1)c1ccc2oc(=O)c(S(=O)(=O)c3ccc(Cl)cc3)cc2c1 [Compound C119]	18.4	16.2	–
O=C(Nc1ccc(F)cc1)c1ccc2oc(=O)c(S(=O)(=O)c3ccc(F)cc3)cc2c1 [Compound C159]	0.9	1.2	–
COc1cccc2cc(S(=O)(=O)c3ccccc3F)c(=O)oc12 [Compound C253]	–	–	Firefly, cmpd/DMSO repeat 1 (Table 9, repeat 1): 2.5; Firefly, cmpd/DMSO repeat 2 (Table 9, repeat 2): 2.7
Cc1ccc(S(=O)(=O)c2cc3ccccc3oc2=O)cc1 [Compound C100]	2.0	1.9	–
Cc1ccc(S(=O)(=O)c2cc3cc(C(=O)Nc4cccc(C)c4)ccc3oc2=O)cc1 [Compound C171]	6.4	4.2	–
COc1ccc(NC(=O)c2ccc3nc(-c4ccccc4)cn3c2)c(OC)c1 [Compound P1]	–	–	Firefly, cmpd/DMSO (mean) (mean of repeats): 3.5; Firefly, cmpd repeat 1 (raw signal, repeat 1): 236; Firefly, cmpd repeat 2 (raw signal, repeat 2): 166; Firefly, cmpd/DMSO repeat 1 (repeat 1): 4.0; Firefly, cmpd/DMSO repeat 2 (repeat 2): 3.0; activity (in words) (screening result): good activity
CCN(CC)c1ccc2cc(S(=O)(=O)c3ccc(C)cc3)c(=O)oc2c1 [Compound C277]	3.4	2.9	–
CCN(CC)c1ccc2cc(S(=O)(=O)c3ccc(Br)cc3)c(=O)oc2c1 [Compound C278]	2.4	3.0	–
COc1cccc2cc(S(=O)(=O)c3cccc(Cl)c3)c(=O)oc12 [Compound C255]	–	–	Firefly, cmpd/DMSO repeat 1 (Table 9, repeat 1): 1.5; Firefly, cmpd/DMSO repeat 2 (Table 9, repeat 2): 1.5
COc1ccc2cc(S(=O)(=O)c3ccc(C)c(C)c3)c(=O)oc2c1 [Compound C270]	3.2	3.1	–
COc1ccc(NC(=O)c2ccc3oc(=O)c(S(=O)(=O)c4ccccc4)cc3c2)cc1 [Compound C177]	17.4	8.2	Firefly/Renilla (NR2F6 stable, clone F4) (Table 12): 2.3; Firefly, NR2F6 stable (clone F4)/pGL4 (Table 12): 8.5; Firefly, cmpd/DMSO repeat 1 (Table 12, repeat 1): 17.4; Firefly, cmpd/DMSO repeat 2 (Table 12, repeat 2): 8.2
COc1cc(Br)cc2cc(S(=O)(=O)c3ccccc3)c(=O)oc12 [Compound C294]	–	–	Firefly, cmpd/DMSO repeat 1 (Table 11, repeat 1): 16.5; Firefly, cmpd/DMSO repeat 2 (Table 11, repeat 2): 16.5
CCOc1cccc2cc(S(=O)(=O)c3cccc(Cl)c3)c(=O)oc12 [Compound C256]	–	–	Firefly, cmpd/DMSO repeat 1 (Table 9, repeat 1): 11.5; Firefly, cmpd/DMSO repeat 2 (Table 9, repeat 2): 7.9; Firefly/Renilla (NR2F6 stable, clone F4) (Table 12): 2.3; Firefly, NR2F6 stable (clone F4)/pGL4 (Table 12): 4.5; Firefly, cmpd/DMSO repeat 1 (Table 12, repeat 1): 11.5; Firefly, cmpd/DMSO repeat 2 (Table 12, repeat 2): 7.9
COc1ccc2cc(S(=O)(=O)c3ccc(OC)c(OC)c3)c(=O)oc2c1 [Compound C274]	3.3	3.5	–
COc1cccc(NC(=O)c2ccc3oc(=O)c(S(=O)(=O)c4ccc(F)cc4)cc3c2)c1 [Compound C127]	36.7	56.2	Firefly/Renilla (NR2F6 stable, clone F4) (Table 13): 1.1; Firefly, NR2F6 stable (clone F4)/pGL4 (Table 13): 5.7; Firefly, cmpd/DMSO repeat 1 (Table 13, repeat 1): 36.7; Firefly, cmpd/DMSO repeat 2 (Table 13, repeat 2): 56.2

Further lines, with some results ahead:

Firefly, cmpd/DMSO repeat 1 [4]	Firefly, cmpd/DMSO repeat 2 [5]	Structure (SMILES)	other results
0.9	0.8	COc1ccc2oc(=O)c(S(=O)(=O)c3ccc(C)c(C)c3)cc2c1 [Compound C144]	–
1.1	1.4	COc1cccc(S(=O)(=O)c2cc3cc(Cl)ccc3oc2=O)c1 [Compound C184]	–
14.0	13.6	O=c1oc2ccc(F)cc2cc1S(=O)(=O)c1ccc(F)cc1 [Compound C213]	Firefly/Renilla (NR2F6 stable, clone F4) (Table 13): 1.6; Firefly, NR2F6 stable (clone F4)/pGL4 (Table 13): 9.6; Firefly, cmpd/DMSO repeat 1 (Table 13, repeat 1): 14.0; Firefly, cmpd/DMSO repeat 2 (Table 13, repeat 2): 13.6
1.3	1.9	COc1cccc(S(=O)(=O)c2cc3ccc(OC)cc3oc2=O)c1 [Compound C259]	–
1.8	1.9	O=c1oc2ccc(Br)cc2cc1S(=O)(=O)c1cc(F)cc(F)c1 [Compound C193]	–
16.2	17.3	O=c1oc2ccc(Cl)cc2cc1S(=O)(=O)c1cccc(F)c1 [Compound C182]	Firefly/Renilla (NR2F6 stable, clone F4) (Table 13): 1.2; Firefly, NR2F6 stable (clone F4)/pGL4 (Table 13): 8.2; Firefly, cmpd/DMSO repeat 1 (Table 13, repeat 1): 16.2; Firefly, cmpd/DMSO repeat 2 (Table 13, repeat 2): 17.3
9.5	15.5	COc1ccc(S(=O)(=O)c2cc3cc(Cl)ccc3oc2=O)cc1 [Compound C203]	–
4.5	3.7	COc1ccc2oc(=O)c(S(=O)(=O)c3cccc(Cl)c3)cc2c1 [Compound C222]	Firefly/Renilla (NR2F6 stable, clone F4) (Table 13): 2.0; Firefly, NR2F6 stable (clone F4)/pGL4 (Table 13): 3.6; Firefly, cmpd/DMSO repeat 1 (Table 13, repeat 1): 4.5; Firefly, cmpd/DMSO repeat 2 (Table 13, repeat 2): 3.7
15.2	14.5	Cc1ccc(S(=O)(=O)c2cc3cc(Cl)ccc3oc2=O)cc1C [Compound C143]	–
9.2	10.3	O=c1oc2ccccc2cc1S(=O)(=O)c1cccc(Cl)c1 [Compound C109]	Firefly/Renilla (NR2F6 stable, clone F4) (Table 13): 2.9; Firefly, NR2F6 stable (clone F4)/pGL4 (Table 13): 2.9; Firefly, cmpd/DMSO repeat 1 (Table 13, repeat 1): 9.2; Firefly, cmpd/DMSO repeat 2 (Table 13, repeat 2): 10.3
1.2	1.3	O=c1oc2cc(O)ccc2cc1S(=O)(=O)c1ccc(F)c(Cl)c1 [Compound C276]	–
37.3	33.3	COc1ccc(S(=O)(=O)c2cc3cc(Cl)ccc3oc2=O)cc1OC [Compound C155]	Firefly/Renilla (NR2F6 stable, clone F4) (Table 12): 2.0; Firefly, NR2F6 stable (clone F4)/pGL4 (Table 12): 10.9; Firefly, cmpd/DMSO repeat 1 (Table 12, repeat 1): 37.3; Firefly, cmpd/DMSO repeat 2 (Table 12, repeat 2): 33.3
5.0	5.8	O=c1oc2ccc(Cl)cc2cc1S(=O)(=O)c1ccc(Br)cc1 [Compound C204]	–
1.8	1.4	Cc1cc(S(=O)(=O)c2cc3cc(F)ccc3oc2=O)ccc1F [Compound C217]	–
